# Several values for one entry are separate records, joined by “and”; a condition that tells them apart may be missing. Identical values can stand only once.
# Key:
# S1R [1] = target: T1, S1R (Rattus norvegicus, UniProt Q9R0C9); assay: PET in AMPA excitotoxic lesion model; format: in vivo
# Method: (§1) Animals were maintained normothermic (body temperature: 37.0 ± 0.4 °C) during the surgery through the use of a heating blanket (Homeothermic Blanket Control Unit, Harvard Apparatus Limited®, Edenbridge, Kent, UK). Twenty-four hours later, the rats were anesthetized again as described above and scanned with a 3T cryogen-free MRS 3000 scanner with a quadrature, rat head coil (MR Solutions, Guildford, UK), [35] to assess oedema (i.e. lesion size and location) immediately before the PET scan. Parameters for the T2-weighted RARE sequence were: repetition time = 4800 ms, base echo time = 17 ms, effective echo time = 68 ms, number of echoes = 8, bandwidth = 20 kHz, number of samples = 256, number of views = 240, number of averages = 1 with 25 slices of 1.06 mm, giving a final voxel size of 0.136 × 0.136 × 1.06 mm.
# PET data were expressed as SUV.
# As the experiments with CM398 were performed later, scans without and with pre-treatment with CM398 were performed in the same animals and therefore were analysed using 2 way ANOVA with repeated measures for ROI and treatment. ANOVA were followed by a Sidak's post-hoc test.
# S1R [2] = target: T1, S1R; assay: Autoradiography in AMPA-injected rat brain sections; format: binding; details: striatum (caudate-putamen + globus pallidus), AMPA rats
# Method: as §1
# Sections of frontal (Brodmann areas 8/9) and temporal cortex (Brodmann areas 21/22) were cut from frozen human tissue blocks. […] Autoradiographs were analysed using AIDA software (Raytest GmbH, Germany). […] Specific binding (total binding minus non-specific binding) in each ROI is expressed as intensity of the photostimulated luminescence (PSL) per pixel.
# Specific binding in the ipsi- and contralateral striatum in the rat AMPA model was analysed with a paired t-test.
# S1R [3] = target: T2, S1R (Mus musculus, UniProt O55242); assay: Autoradiography in 6-OHDA Parkinson's disease mouse model; format: binding; details: 6-OHDA mouse
# T2 construct: using 20µm fresh frozen brain sections from 6 naïve and 3 AMPA-injected Wistar rats, 6 C57Bl6 mice; from tissue; host or cells: fresh frozen brain sections of 6-OHDA-lesioned C57Bl6 mice
# Method: C57Bl6 mice were bred in the animal facility of the European Institute for Molecular Imaging (University of Muenster). Animal experiments were performed in accordance with the German laws for animal protection and were approved by the local bureau for animal care (LANUV, Landesamt für Natur, Umwelt und Verbraucherschutz Nordrhein-Westfalen). For stereotactic injections, mice (n = 6) were anaesthetised (ketamine/xylazine i.p.) and placed into a stereotactic frame. A small skin incision followed by craniotomy was performed. The needle was placed in position (coordinates: AP: +0.5 mm; ML: -2.0 mm; DV: -3.0 mm) and after 1 min, 2 µL of 5 mg/mL 6-hydroxydopamine (6-OHDA) in 0.9% NaCl and 0.02% ascorbic acid were injected into the left striatum using a 5 µL Hamilton 7005KH syringe. The syringe was kept in place for 5 min in order to allow the solution to diffuse into the surrounding tissue and was then retracted slowly.
# (§2) Sections of frontal (Brodmann areas 8/9) and temporal cortex (Brodmann areas 21/22) were cut from frozen human tissue blocks. Human and rodents sections were mounted on to glass slides (SuperFrost Plus Gold and SuperFrost Plus slides, Thermo Fisher Scientific Inc., MA, USA for human and animal tissues, respectively). For all steps described below, Tris buffer (Trizma pre-set crystals (Sigma, UK), 50 mM, with 120 mM NaCl, with pH adjusted to 7.4 at 4 °C or room temperature) was used. Slides were allowed to defrost then pre-incubated in Tris Buffer at 4 °C for 5min. […] Adjacent sections were incubated with the same solution containing an excess of unlabelled IAM6067 (2 µM) to assess non-specific binding. Next the slides were washed 2 × 2 min in Tris buffer at 4 °C, followed by a quick rinsing in distilled water at 4 °C. Slides were then dried promptly before exposition on Phosphor-Imager plates overnight. Autoradiographs were analysed using AIDA software (Raytest GmbH, Germany). […] Specific binding (total binding minus non-specific binding) in each ROI is expressed as intensity of the photostimulated luminescence (PSL) per pixel.
# S1R [4] = target: T1, S1R; assay: In vitro autoradiography, naive rat brain sections; format: binding; details: 2 nM tracer
# Method: as §2
# T1 sequence (Q9R0C9 whole entry): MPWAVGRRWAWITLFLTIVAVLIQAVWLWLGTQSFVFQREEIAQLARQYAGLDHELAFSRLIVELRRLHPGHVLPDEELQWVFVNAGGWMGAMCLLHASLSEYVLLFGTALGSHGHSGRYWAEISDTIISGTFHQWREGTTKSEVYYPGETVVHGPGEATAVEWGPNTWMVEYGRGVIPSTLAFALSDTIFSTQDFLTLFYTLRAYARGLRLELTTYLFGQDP
# T2 sequence (O55242 whole entry): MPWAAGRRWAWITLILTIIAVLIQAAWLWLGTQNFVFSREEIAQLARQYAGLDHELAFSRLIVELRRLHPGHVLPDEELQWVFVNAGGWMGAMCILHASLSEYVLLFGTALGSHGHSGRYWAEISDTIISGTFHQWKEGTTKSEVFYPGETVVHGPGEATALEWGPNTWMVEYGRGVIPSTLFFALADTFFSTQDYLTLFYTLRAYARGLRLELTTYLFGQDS
structure (smiles),measurement,setting,value
"FCCOc1ccc(CN2CCN(Cc3cc4ccccc4o3)CC2)cc1 [^18F-IAM6067, N-(2-Benzofuranylmethyl)-N'-[4-(2-fluoroethoxy)benzyl]piperazine]","^18F-IAM6067 uptake, AMPA-lesioned vs control rats (in words)",S1R [1]; ipsi- and contralateral substantia nigra and pons-raphe,significant increase
same,change in ^18F-IAM6067 uptake (PET),"S1R [1]; lesioned caudate-putamen, 24 h after intrastriatal AMPA 7.5 nmol",-16% and -16 ± 11%
same,"change in ^18F-IAM6067 specific binding, ipsi- vs contralateral",S1R [2],-38 ± 8% and -38%
same,specific binding,"S1R [3]; cingulate cortex, contralateral",4.29 ± 0.84 PSL/pixel
same,specific binding,"S1R [3]; cingulate cortex, ipsilateral",4.21 ± 0.87 PSL/pixel
same,specific binding,"S1R [3]; striatum, contralateral",3.30 ± 0.55 PSL/pixel
same,specific binding,"S1R [3]; striatum, ipsilateral",3.39 ± 0.49 PSL/pixel
same,specific binding,"S1R [3]; thalamus medio-dorsal, contralateral",3.22 ± 0.65 PSL/pixel
same,specific binding,"S1R [3]; thalamus medio-dorsal, ipsilateral",3.25 ± 0.64 PSL/pixel
same,specific binding,"S1R [3]; ventral tegmental area/substantia nigra, contralateral",3.92 ± 1.08 PSL/pixel
same,specific binding,"S1R [3]; ventral tegmental area/substantia nigra, ipsilateral",3.82 ± 1.25 PSL/pixel
same,specific binding,S1R [4]; cingulate cortex,4.96 ± 0.26 PSL/pixel
same,specific binding,S1R [4]; hypothalamus,6.79 ± 0.95 PSL/pixel
same,specific binding,S1R [4]; pons,7.24 ± 0.89 PSL/pixel
same,specific binding,S1R [4]; somatosensory cortex,4.49 ± 0.51 PSL/pixel
same,specific binding,S1R [4]; striatum,4.56 ± 0.42 PSL/pixel
